Reference: article PMC12281424, “A Rac-specific competitive inhibitor of guanine nucleotide binding reduces metastasis in triple-negative breast cancer” (Cell Reports Medicine, 2025)

What was measured:
[1] = molecular target: T1, RAC1 P29S (Homo sapiens, UniProt P63000, P29S); experiment: RAC-GTP pull-down in transfected NIH-3T3 fibroblasts; type: cell-based; settings: 10^-5 M
T1 construct: expressed in transfected cells; host or cells: NIH-3T3 fibroblasts
Description: (§1) Figure 4 A41 selectively impairs RAC protein activation (A) Representative surface plasmon resonance (SPR) sensograms of binding of immobilized RHOA or CDC42 with indicated increasing concentrations of A41 (N > 3). (B) Effect of A41 on GEF-stimulated RAC2, RHOG, RHOA, and CDC42 nucleotide exchange. Purified small G proteins were pre-loaded with GDP and then nucleotide exchange was monitored by the increase in fluorescence following mant-GTP binding in the absence and presence of A41 (5 μM) (N = 3). Kobs is expressed as mean ± SEM. ∗p < 0.001 vs. control. (C) Effect of A41 on RAC1 G30S activation. RAC1 G30S activation was monitored by the increase in fluorescence following mant-GTP binding in the absence and presence of A41 (5 μM). […] Data are expressed as mean ± SEM. (D) Immunoblot analysis and associated quantification of RAC-GTP level and total RAC expression in NIH-3T3 fibroblasts expressing RAC wild-type (RAC1 WT) or RAC1 oncomutants (RAC1 P29S and RAC1b) in the absence (Ctrl) and presence of A41 (10 μM). RAC activation was measured as the ratio of RAC-GTP to total RAC and expressed relative to Ctrl condition. […]
(§2) Pull-down assay using GST-PBD fusion proteins were performed on NIH-3T3 lysates to assess RAC1 activity as previously described.[63] The precipitated active RAC was subjected to SDS-PAGE and detected by immunoblot with anti-RAC1 antibody (BD biosciences) (dilution 1/1000).

[2] = molecular target: T2, RAC1b (Homo sapiens, UniProt P63000); experiment: as above; type: cell-based; settings: 10^-5 M
T2 construct: expressed in transfected cells; host or cells: NIH-3T3 fibroblasts
Description: as §1, §2

[3] = White blood cell formula; type: in vivo, mouse
Source text: Data S6. Formule white blood cell (% of leukocytes) in control and A41-treated mice (25
Control (n=5) A41 (n=5) p value

[4] = molecular target: Adrenergic β1 (Homo sapiens, UniProt P08588); experiment: Safety screen; type: binding
Description: (§3) Blood cell counts, kinase profiler, safety screen, bacterial cytotoxicity, Ames, micronucleus assays were performed by the company Eurofins (France). The kinase profiler was performed by the company Eurofins (Discovery, Panlab and Cerep).

[5] = molecular target: Chemokine CCR1 (Homo sapiens, UniProt P32246); experiment: Safety screen; type: binding
Description: (§4) Blood cell counts, kinase profiler, safety screen, bacterial cytotoxicity, Ames, micronucleus assays were performed by the company Eurofins (France).

[6] = molecular target: Serotonin (5-Hydroxytryptamine) 5-HT1B (Homo sapiens, UniProt P28222); experiment: Safety screen; type: binding
Description: as §3

[7] = molecular target: Serotonin (5-Hydroxytryptamine) 5-HT2A (Homo sapiens, UniProt P28223); experiment: Safety screen; type: binding
Description: as §3

[8] = molecular target: Serotonin (5-Hydroxytryptamine) 5-HT2C (Homo sapiens, UniProt P28335); experiment: Safety screen; type: binding
Description: as §4

[9] = molecular target: ALK(h) (Homo sapiens, UniProt Q9UM73); experiment: Kinase Profiler; type: biochemical
Description: (§5) The kinase profiler was performed by the company Eurofins (Discovery, Panlab and Cerep).

[10] = molecular target: B-Raf(V599E)(h) (Homo sapiens, UniProt P15056, V600E); experiment: Kinase Profiler; type: biochemical
Description: as §3

[11] = molecular target: CDKL3(h) (Homo sapiens, UniProt Q8IVW4); experiment: Kinase Profiler; type: biochemical
Description: as §5

[12] = molecular target: CSK(h) (Homo sapiens, UniProt P41240); experiment: Kinase Profiler; type: biochemical
Description: as §5

[13] = molecular target: DRAK2(h) (Homo sapiens, UniProt O94768); experiment: Kinase Profiler; type: biochemical
Description: as §3

[14] = molecular target: GSK3α(h) (Homo sapiens, UniProt P49840); experiment: Kinase Profiler; type: biochemical
Description: as §3

[15] = molecular target: IKKβ(h) (Homo sapiens, UniProt O14920); experiment: Kinase Profiler; type: biochemical
Description: as §3

[16] = molecular target: IRAK1(h) (Homo sapiens, UniProt P51617); experiment: Kinase Profiler; type: biochemical
Description: as §3

[17] = molecular target: KDR(h) (Homo sapiens, UniProt P35968); experiment: Kinase Profiler; type: biochemical
Description: as §5

[18] = molecular target: Lck(h) (Homo sapiens, UniProt P06239); experiment: Kinase Profiler; type: biochemical
Description: as §5

[19] = molecular target: MKK3(h) (Homo sapiens, UniProt P46734); experiment: Kinase Profiler; type: biochemical
Description: as §5

[20] = molecular target: mTOR/FKBP12(h) (Homo sapiens, UniProt P42345); experiment: Kinase Profiler; type: biochemical
Description: as §5

[21] = molecular target: PAK3(h) (Homo sapiens, UniProt O75914); experiment: Kinase Profiler; type: biochemical
Description: as §5

[22] = molecular target: PDGFRα(V561D)(h) (Homo sapiens, UniProt P16234, V561D); experiment: Kinase Profiler; type: biochemical
Description: as §5

[23] = molecular target: PKBβ(h) (Homo sapiens, UniProt P31751); experiment: Kinase Profiler; type: biochemical
Description: as §5

[24] = molecular target: PRAK(h) (Homo sapiens, UniProt Q8IW41); experiment: Kinase Profiler; type: biochemical
Description: as §3

[25] = molecular target: SNRK(h) (Homo sapiens, UniProt Q9NRH2); experiment: Kinase Profiler; type: biochemical
Description: as §5

[26] = molecular target: Wee1B(h) (Homo sapiens, UniProt P0C1S8); experiment: Kinase Profiler; type: biochemical
Description: as §5

[27] = molecular target: PI3K (p110a(H1047R)/p85a)(m) (Mus musculus, UniProt P42337, H1047R); experiment: Kinase Profiler; type: biochemical
Description: as §3

[28] = molecular target: PI3K (p110b/p85b)(m) (Mus musculus, UniProt Q8BTI9); experiment: Kinase Profiler; type: biochemical
Description: as §3

[29] = molecular target: PI3K (p110b/p85a)(m) (Mus musculus, UniProt Q8BTI9); experiment: Kinase Profiler; type: biochemical
Description: as §3

Sequence of DRAK2(h) (O94768 whole entry): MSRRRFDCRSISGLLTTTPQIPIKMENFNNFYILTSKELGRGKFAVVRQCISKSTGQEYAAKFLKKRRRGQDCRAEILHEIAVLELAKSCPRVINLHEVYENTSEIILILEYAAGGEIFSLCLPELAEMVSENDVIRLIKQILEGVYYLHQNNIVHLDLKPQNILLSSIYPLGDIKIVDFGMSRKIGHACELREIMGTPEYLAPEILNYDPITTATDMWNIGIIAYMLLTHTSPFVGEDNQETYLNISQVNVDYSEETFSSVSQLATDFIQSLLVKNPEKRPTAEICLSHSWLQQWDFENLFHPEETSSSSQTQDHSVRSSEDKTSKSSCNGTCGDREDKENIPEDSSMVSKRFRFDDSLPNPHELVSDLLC
Sequence of KDR(h) (P35968 20-1356): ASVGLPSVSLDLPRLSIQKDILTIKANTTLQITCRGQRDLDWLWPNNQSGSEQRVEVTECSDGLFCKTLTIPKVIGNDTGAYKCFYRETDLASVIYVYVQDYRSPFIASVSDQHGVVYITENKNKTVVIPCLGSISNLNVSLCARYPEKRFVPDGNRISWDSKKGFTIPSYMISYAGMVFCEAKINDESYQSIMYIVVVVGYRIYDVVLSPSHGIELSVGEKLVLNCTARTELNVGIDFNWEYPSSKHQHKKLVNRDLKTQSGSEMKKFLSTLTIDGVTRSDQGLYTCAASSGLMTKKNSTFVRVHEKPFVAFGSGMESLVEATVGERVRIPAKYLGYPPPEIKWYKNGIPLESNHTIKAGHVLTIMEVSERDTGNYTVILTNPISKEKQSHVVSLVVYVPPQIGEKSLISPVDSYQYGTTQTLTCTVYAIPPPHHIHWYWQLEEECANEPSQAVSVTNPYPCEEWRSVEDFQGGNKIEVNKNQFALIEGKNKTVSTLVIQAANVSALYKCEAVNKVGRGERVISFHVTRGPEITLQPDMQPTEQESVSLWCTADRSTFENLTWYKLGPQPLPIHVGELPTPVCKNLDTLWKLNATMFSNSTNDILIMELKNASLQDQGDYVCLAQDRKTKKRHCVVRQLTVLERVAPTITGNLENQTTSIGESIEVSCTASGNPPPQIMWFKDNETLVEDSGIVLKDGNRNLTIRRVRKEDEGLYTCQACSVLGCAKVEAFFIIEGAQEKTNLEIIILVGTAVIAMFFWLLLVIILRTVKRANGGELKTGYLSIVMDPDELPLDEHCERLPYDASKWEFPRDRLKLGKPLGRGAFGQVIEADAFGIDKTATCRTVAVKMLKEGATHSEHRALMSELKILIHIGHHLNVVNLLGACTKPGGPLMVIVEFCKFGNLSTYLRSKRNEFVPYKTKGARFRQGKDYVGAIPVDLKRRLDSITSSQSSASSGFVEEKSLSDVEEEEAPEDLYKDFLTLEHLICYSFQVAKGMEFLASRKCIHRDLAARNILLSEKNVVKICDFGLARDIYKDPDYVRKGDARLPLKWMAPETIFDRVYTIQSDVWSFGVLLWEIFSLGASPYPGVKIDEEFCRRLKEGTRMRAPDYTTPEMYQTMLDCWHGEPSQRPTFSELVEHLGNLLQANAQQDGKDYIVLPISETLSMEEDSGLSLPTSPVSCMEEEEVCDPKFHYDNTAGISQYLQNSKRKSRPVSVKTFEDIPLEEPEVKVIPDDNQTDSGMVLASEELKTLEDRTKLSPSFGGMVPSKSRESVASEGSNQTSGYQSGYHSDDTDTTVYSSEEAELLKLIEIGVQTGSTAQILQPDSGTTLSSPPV
Sequence of IKKβ(h) (O14920 whole entry): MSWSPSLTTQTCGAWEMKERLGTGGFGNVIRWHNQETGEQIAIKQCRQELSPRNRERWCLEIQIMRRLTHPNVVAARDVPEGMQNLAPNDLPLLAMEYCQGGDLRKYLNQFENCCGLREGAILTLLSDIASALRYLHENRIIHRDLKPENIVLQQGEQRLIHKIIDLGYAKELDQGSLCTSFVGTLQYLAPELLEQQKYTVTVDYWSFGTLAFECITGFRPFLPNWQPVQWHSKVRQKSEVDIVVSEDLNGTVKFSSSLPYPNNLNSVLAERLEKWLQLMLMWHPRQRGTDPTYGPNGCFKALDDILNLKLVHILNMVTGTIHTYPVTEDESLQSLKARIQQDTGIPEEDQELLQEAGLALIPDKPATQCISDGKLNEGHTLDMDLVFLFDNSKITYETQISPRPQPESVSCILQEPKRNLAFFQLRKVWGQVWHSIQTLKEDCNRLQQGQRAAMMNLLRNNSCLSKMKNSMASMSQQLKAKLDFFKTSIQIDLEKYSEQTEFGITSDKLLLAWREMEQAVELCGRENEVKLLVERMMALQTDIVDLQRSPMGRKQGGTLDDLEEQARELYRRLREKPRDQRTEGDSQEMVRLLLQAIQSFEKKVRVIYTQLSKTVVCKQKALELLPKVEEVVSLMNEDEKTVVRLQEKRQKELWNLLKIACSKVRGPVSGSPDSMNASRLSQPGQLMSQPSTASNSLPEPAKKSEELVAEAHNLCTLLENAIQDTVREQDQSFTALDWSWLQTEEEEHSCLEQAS
Sequence of mTOR/FKBP12(h) (P42345 1362-2549 limits assumed): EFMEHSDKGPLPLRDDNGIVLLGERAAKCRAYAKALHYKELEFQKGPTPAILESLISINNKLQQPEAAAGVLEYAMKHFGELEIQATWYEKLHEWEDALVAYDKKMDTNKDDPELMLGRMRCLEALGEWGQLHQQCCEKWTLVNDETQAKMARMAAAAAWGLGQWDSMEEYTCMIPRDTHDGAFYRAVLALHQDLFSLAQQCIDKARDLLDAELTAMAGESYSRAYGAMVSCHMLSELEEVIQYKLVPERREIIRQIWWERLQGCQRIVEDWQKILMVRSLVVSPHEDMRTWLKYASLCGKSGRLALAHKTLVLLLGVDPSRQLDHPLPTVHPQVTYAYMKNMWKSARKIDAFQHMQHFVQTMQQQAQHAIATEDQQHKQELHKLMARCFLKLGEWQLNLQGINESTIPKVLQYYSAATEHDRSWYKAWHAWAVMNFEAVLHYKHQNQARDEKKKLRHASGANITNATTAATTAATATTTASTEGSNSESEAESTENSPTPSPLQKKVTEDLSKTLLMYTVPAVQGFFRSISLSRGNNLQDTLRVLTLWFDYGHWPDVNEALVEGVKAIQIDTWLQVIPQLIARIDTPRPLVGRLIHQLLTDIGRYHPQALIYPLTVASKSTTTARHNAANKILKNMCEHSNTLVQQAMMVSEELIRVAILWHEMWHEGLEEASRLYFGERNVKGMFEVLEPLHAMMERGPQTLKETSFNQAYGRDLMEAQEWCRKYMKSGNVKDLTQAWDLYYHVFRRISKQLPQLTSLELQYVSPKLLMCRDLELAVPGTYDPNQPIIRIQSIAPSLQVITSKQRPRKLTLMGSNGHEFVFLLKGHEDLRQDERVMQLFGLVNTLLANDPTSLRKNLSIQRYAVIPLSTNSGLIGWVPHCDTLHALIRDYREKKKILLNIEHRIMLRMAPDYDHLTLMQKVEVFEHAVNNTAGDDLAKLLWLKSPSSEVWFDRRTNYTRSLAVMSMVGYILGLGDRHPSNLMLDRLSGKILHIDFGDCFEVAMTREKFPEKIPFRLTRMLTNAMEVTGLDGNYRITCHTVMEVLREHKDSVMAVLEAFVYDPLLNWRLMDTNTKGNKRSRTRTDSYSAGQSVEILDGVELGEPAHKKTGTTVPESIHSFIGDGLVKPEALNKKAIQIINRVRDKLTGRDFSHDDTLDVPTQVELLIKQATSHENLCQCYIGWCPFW
Sequence of Lck(h) (P06239 whole entry): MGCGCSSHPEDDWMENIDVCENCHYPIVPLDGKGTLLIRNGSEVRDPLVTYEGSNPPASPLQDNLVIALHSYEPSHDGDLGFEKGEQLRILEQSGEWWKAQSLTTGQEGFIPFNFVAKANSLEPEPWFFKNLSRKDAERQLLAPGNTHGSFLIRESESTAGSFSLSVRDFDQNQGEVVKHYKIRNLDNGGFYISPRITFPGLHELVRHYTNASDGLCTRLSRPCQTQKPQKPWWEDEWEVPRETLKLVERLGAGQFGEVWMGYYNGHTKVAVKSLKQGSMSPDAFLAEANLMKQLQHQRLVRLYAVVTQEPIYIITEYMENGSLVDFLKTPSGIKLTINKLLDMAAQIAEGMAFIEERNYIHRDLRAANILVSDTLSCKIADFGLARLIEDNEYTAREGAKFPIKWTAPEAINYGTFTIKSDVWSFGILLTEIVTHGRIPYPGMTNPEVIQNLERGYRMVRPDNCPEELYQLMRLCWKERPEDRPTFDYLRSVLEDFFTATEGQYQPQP
Sequence of PRAK(h) (Q8IW41 whole entry): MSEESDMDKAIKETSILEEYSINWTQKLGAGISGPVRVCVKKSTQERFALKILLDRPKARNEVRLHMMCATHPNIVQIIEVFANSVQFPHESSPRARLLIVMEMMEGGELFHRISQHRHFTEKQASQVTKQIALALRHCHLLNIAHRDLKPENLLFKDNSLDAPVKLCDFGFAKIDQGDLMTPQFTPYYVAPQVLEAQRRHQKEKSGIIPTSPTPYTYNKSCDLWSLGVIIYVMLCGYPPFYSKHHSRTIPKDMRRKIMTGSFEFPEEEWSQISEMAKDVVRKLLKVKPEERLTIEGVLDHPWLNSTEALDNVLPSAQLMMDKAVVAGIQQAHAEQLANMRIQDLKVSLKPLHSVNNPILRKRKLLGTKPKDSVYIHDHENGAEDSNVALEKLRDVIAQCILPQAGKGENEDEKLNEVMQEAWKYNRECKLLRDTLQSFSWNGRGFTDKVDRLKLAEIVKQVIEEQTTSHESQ
Sequence of Serotonin (5-Hydroxytryptamine) 5-HT2C (P28335 33-458): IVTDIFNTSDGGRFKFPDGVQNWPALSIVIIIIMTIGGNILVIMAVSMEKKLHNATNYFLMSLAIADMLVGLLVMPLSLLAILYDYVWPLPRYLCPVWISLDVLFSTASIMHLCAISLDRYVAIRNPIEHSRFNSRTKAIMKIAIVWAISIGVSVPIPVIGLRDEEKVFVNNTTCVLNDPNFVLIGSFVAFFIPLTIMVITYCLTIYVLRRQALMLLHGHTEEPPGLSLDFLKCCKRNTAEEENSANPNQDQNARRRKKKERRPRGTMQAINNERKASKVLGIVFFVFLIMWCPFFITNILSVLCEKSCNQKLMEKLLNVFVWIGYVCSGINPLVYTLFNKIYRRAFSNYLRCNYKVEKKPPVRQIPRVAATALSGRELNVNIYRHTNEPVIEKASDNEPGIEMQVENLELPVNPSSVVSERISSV

COc1ccc(OC)c(NS(=O)(=O)c2ccc(NC(=O)CCSc3ccc(C)cc3)cc2)c1 [Compound A41]
activity of RAC P29S (RAC-GTP) [1]: reduced the activity | activity of RAC1b (RAC-GTP) [2]: reduced the activity | B cells, Mean (SD) ([3]; 25 mg/kg/d, n=5): 11.62 (1.58) % of leukocytes | Macrophages, Mean (SD) ([3]; 25 mg/kg/d, n=5): 2.46 (2.34) % of leukocytes | Monocytes, Mean (SD) ([3]; 25 mg/kg/d, n=5): 0.86 (0.57) % of leukocytes | NK cells, Mean (SD) ([3]; 25 mg/kg/d, n=5): 0.40 (0.22) % of leukocytes | Neutrophiles, Mean (SD) ([3]; 25 mg/kg/d, n=5): 4.19 (6.24) % of leukocytes | T cells, Mean (SD) ([3]; 25 mg/kg/d, n=5): 52.20 (2.11) % of leukocytes | white cell blood counts ([3]; chronic A41 treatment, immunocompetent mice): not accompanied by changes in white cell blood counts | % inh. [4]: 2% | % inh. [5]: 2% | % inh. [6]: 15% | % inh. [7]: 84% | % inh. [8]: 56% | Activity(%) [9]: 82% | Activity(%) [10]: 87% | Activity(%) [11]: 103% | Activity(%) [12]: 119% | Activity(%) [13]: 90% | Activity(%) [14]: 90% | Activity(%) [15]: 110% | Activity(%) [16]: 104% | Activity(%) [17]: 113% | Activity(%) [18]: 74% | Activity(%) [19]: 117% | Activity(%) [20]: 104% | Activity(%) [21]: 107% | Activity(%) [22]: 119% | Activity(%) [23]: 116% | Activity(%) [24]: 88% | Activity(%) [25]: 123% | Activity(%) [26]: 89% | Activity(%) [27]: 100% | Activity(%) [28]: 100% | Activity(%) [29]: 101%
